The target of one series is T1, vanilloid receptor (Rattus norvegicus, UniProt O35433).
T1 construct: DRG nerve cells from the primary culture of 2 days were equilibrated by washing 4 times; endogenous in cells; host or cells: primary culture of dorsal root ganglion neurons from neonatal SD rats
Nature of the series: 45Ca influx test (calcium uptake) in primary cultured DRG neurons, capsaicin 0.5 μM. The format is cell-based. In outline:
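Neonatal SD rat DRG neurons, cultured 2 days with NGF (200 ng/ml) and Ara-C, were washed in HEPES (10 mM, pH 7.4)-buffered Ca/Mg-free HBSS. Test compound was added with capsaicin (final 0.5 μM) and 45Ca (10 μCi/ml) for 10 min at room temperature; 45Ca uptake counted by scintillation after SDS elution.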

A short description of series [1]: PK study in rats, single oral administration. The format is in vivo, rat. The following applies: rat, single oral administration, plasma; for half-life: Table 2, read-out: T½ (converted). The arrangement: AUC: concentration or dose not given beside the values. The procedure: Pharmacokinetics of compounds in rats were analyzed using the following experiment. Rats were fasted overnight prior to administration and until approximately 4 hours after administration. Rats were given a single oral administration of compound at same dose. Administration volume was 10 ml/kg. Blood samples were collected from the retro-orbital sinus at various times over the following 7 hrs. Immediately after each collection, plasmas were separated from blood cells by centrifugation and stored at −20° C. until the analysis was performed. The plasma samples were analyzed using a reverse phase high-performance chromatography (HPLC) method.

For orientation: IC50 means the midpoint of a concentration-inhibition curve. By AUC is commonly meant concentration integrated over time. The term Cmax denotes the maximum level reached in the sampled fluid or tissue. What is called Tmax is the time at which the peak concentration occurs.

Each structure is given as a SMILES string. Like-named read-outs stand apart in the source and are kept apart here.

T1 sequence (O35433 whole entry): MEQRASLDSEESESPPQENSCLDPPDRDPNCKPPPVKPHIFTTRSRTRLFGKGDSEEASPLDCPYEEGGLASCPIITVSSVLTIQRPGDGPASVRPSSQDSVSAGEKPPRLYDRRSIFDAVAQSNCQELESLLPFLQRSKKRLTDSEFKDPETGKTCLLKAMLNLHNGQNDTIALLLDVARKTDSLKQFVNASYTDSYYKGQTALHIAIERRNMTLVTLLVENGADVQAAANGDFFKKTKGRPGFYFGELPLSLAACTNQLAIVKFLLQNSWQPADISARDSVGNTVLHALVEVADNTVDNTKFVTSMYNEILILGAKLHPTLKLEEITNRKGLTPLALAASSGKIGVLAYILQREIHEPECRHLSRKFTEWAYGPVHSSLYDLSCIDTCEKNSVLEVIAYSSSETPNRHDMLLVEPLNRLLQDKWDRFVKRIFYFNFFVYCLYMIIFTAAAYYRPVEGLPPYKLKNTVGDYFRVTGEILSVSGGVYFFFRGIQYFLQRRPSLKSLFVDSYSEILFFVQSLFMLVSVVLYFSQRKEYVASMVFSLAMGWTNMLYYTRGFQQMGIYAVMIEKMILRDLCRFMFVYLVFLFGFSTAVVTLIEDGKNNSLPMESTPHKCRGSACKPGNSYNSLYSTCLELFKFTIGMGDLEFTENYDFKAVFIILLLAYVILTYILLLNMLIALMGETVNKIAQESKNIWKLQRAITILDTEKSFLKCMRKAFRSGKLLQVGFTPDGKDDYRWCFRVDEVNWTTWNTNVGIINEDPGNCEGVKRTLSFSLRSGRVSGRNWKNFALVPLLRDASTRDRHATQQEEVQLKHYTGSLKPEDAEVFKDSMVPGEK

`CCCNc1cc(C(F)(F)F)ccc1/C=C/C(=O)NCc1cc(F)c(NS(C)(=O)=O)c(F)c1` [Example 2, N-(3,5-Difluoro-4-methanesulfonylamino-benzyl)-3-(2-propylamino-4-trifluoromethyl-phenyl)-acrylamide]: the IC50 at vanilloid receptor (rat DRG neurons, capsaicin 0.5 μM, 45Ca, read-out: Antagonist Calcium Uptake Test (IC50)) amounted to 170 nM. For the same compound, in series [1] (Table 2), the AUC was 7150 ng·h/mL, the Cmax worked out at 1420 ng/mL and the Tmax turned out to be 2 h. Besides, the half-life in series [1] is 3.55 h.

Take `CCCNc1cc(C(C)(C)C)ccc1/C=C/C(=O)NCc1cc(F)c(NS(C)(=O)=O)c(F)c1` [Comp Cpd D, reference compound]: at vanilloid receptor (Table 3, comparative compounds having tert-butyl-phenyl, read-out: IC50), the IC50 was found to be 85 nM. This compound also displayed a Cmax in series [1] (Table 3, detection limit 0.100 mcg/ml) of under 100 ng/mL.

As to `C=Cc1cc(CNC(=O)/C=C/c2ccc(C(F)(F)F)cc2NC(C)C)cc(F)c1NS(C)(=O)=O` [Example 54, N-(3-fluoro-4-methanesulfonylamino-5-vinyl-benzyl)-3-(2-isopropylamino-4-trifluoromethyl-phenyl)-acrylamide], the IC50 at vanilloid receptor (comparison with comparative compounds F and G, read-out: IC50 value) came to 27 nM. In series [1] (Table 2), the AUC worked out at 5320 ng·h/mL, the Cmax was determined as 772 ng/mL and the Tmax came out at 2 h. The half-life in series [1] is 4.05 h.
